Measured values from patent US10874103B2, “Antibacterial composition comprising an acetal or a long-chain alkyl hexitane ether” (TEREOS STARCH & SWEETENERS BELGIUM, priority 2014, dated 2020).

How the values were obtained:
[1] = test system: E. faecalis (ATCC® 29212™); test: MIC, 96-well microplate microdilution (Example 4); format: cell-based; details: Mueller-Hinton medium, 18 h at 37° C.
Experimental: (§1) The bacteriostatic properties of the derivatives are evaluated by measuring their minimum inhibitory concentration (MIC) on the bacteria tested. Such a measurement is made using the 96-well microplate microdilution method according to the conditions defined below.
(§2) The minimum inhibitory concentrations (MIC) are tested on Gram-positive bacterial strains according to the recommendations of the “Clinical Laboratory Standards Institute” (Clinical-Laboratory-Standards-Institute, 6th ed. Approved standard M100-S17. CLSI, Wayne, Pa., 2007).
(§3) The Gram-positive bacteria studied are as follows: L. monocytogenes (CIP 103575), E. faecalis (ATCC® 29212™) and S. aureus (ATCC® 292213™).
(§4) The cultures studied, freshly isolated (after incubation on a blood agar at 37° C. for 18 h), are taken up in sterile water (10 mL) until a 0.5 McFarland (Mc) suspension i.e. 1 to 2×10^8 CFU (bacteria)/cm^3 is obtained. The bacterial suspension was then diluted to obtain a final concentration of 5×10^5 CFU/cm^3.
(§5) Each well contains an identical quantity of Mueller-Hinton medium (a rich medium for bacterial culture) and bacteria with final 5×10^5 CFU/cm^3.
(§6) The test compounds of interest are solubilized in 2.5% m of ethanol before being diluted to different concentrations two by two.
(§7) On the multiwell plate, a first series has been planned comprising the culture medium without the test compound of interest. It corresponds to the growth control (control well). These controls serve as reference for comparing bacterial growth with that of the subsequent wells comprising different concentrations of the test compound of interest. The second series of wells comprises the mother solution for the test compound of interest for a concentration in the wells of 4 mM. Each series of wells was diluted two by two until the last series for a final concentration of 0.003 mM. Each concentration is duplicated in the same plate. The plate is incubated for 18 h at 37° C. […] If there is antibacterial activity, the bacterial growth is inhibited, which means that no turbidity or bacterial residue is present.
(§8) Tests have been conducted on Gram-positive bacteria with sorbitan derivatives. […] After sterilization the solutions are diluted in water. The results obtained for antimicrobial tests on the 3 bacterial strains L. monocytogenes (CIP 103575), E. faecalis (ATCC® 29212™) and S. aureus (ATCC® 292213™) are summarized in Table 1.

[2] = test system: L. monocytogenes (CIP 103575); test: MIC, 96-well microplate microdilution (Example 4); format: cell-based; details: Mueller-Hinton medium, 18 h at 37° C.
Experimental: as §1, §2, §3, §4, §5, §6, §7, §8

[3] = test system: S. aureus (ATCC® 292213™); test: MIC, 96-well microplate microdilution (Example 4); format: cell-based; details: ATCC 292213; Mueller-Hinton medium, 18 h at 37° C.
Experimental: as §1, §2, §3, §4, §5, §6, §7, §8

[4] = test system: L. monocytogenes (CIP 103575), E. faecalis (ATCC® 29212™) and S. aureus (ATCC® 292213™); test: MIC microdilution, statements for all three Gram-positive strains together; format: cell-based; details: listed as Sorbitan dodecyl ether
Experimental: as §1, §2, §3, §4, §5, §6
On the multiwell plate, a first series has been planned comprising the culture medium without the test compound of interest. […]

[5] = test system: Staphylococcus Aureus strains; test: MIC microdilution on wider panel (Example 8), Staphylococcus strains; format: cell-based, S. aureus
Experimental: (§9) The cultures studied, freshly isolated (after incubation on a blood agar at 37° C. for 18 h), are taken up in sterile water (10 mL) until a 0.5 McFarland (Mc) suspension i.e. at 1 to 2×10^8 CFU (bacteria)/cm^3 is obtained. The bacterial suspension was then diluted to obtain a final concentration of 1×10^6 CFU/cm^3.
(§10) Each well contains an identical quantity of Mueller-Hinton medium (a rich medium for bacterial culture) and bacteria with final 0.5×10^6 CFU/cm^3.
as §7, with “The test compounds of interest are solubilized in ethanol or DMSO at 25 mg/mL before being diluted to different concentrations two by two. On” for “On”, “256 mg (7 mM).” for “4 mM.”, “0.25 mg/L (0.0007 mM).” for “0.003 mM.”
(§11) The minimum inhibitory concentrations (MIC) are tested on Gram-positive bacterial strains according to the recommendations of the “Clinical Laboratory Standards Institute” (Clinical-Laboratory-Standards-Institute, 6th ed. Approved standard M100-S17. CLSI, Wayne, Pa., 2007). The clinical strains have been isolated in the Hospice de Lyon.
Staphylococci S. aureus: ATCC® 29213™, ATCC 25923,
Staphylococci strains Daptomycin-resistant S. aureus (ST 2015-0188), (ST 2014 1288).
The cultures studied, freshly isolated (after incubation on a blood agar at 37° C. for 18 h), are taken up in sterile water (10 mL) until a 0.5 McFarland (Mc) suspension i.e. at 10^8 CFU (bacteria)/cm^3 is obtained. The bacterial suspension was then diluted to obtain a final concentration of 10^6 CFU/cm^3.

[6] = test system: Enterococci: E. faecium strains; test: MIC microdilution on wider panel (Example 8), E. faecium strains; format: cell-based
Experimental: as §9, §10
as §7, with “The test compounds of interest are solubilized in ethanol or DMSO at 25 mg/mL before being diluted to different concentrations two by two. On” for “On”, “256 mg (7 mM).” for “4 mM.”, “0.25 mg/L (0.0007 mM).” for “0.003 mM.”
as §11
Enterococci: E. faecium (CIP 103510), clinical strains of Enterococci E. faecium: Van A 0151850763 (hereinafter Van A); strain 015 205731401 (hereinafter 1401), […]

Dodecyl-1,4-d-sorbitan [Example 2e]
Minimum inhibitory concentration (MIC) E. faecalis [1]: 120 µM | Minimum inhibitory concentration (MIC) L. monocytogenes [2]: 120 µM | Minimum inhibitory concentration (MIC) S. aureus [3]: 120 µM | MIC / inhibitory concentration on the bacterial strains studied [4]: 120 µM | Minimum inhibitory concentration (MIC) ST 2014 1288 ([5]; Daptomycin-resistant S. aureus ST 2014 1288): 64 µg/mL | Minimum inhibitory concentration (MIC) ST 2015 0188 ([5]; Daptomycin-resistant S. aureus ST 2015-0188): 64 µg/mL | Minimum inhibitory concentration (MIC) HT 2002-0417 ([5]; Methicillin-resistant S. aureus HT 2002-0417): 32 µg/mL | Minimum inhibitory concentration (MIC) HT 2004-0012 ([5]; Methicillin-resistant S. aureus HT 2004-0012): 32 µg/mL | Minimum inhibitory concentration (MIC) HT 2006-1004 ([5]; Methicillin-resistant S. aureus HT 2006-1004): 32 µg/mL | Minimum inhibitory concentration (MIC) LY 199-0053 ([5]; Methicillin-resistant S. aureus LY 199-0053): 32 µg/mL | Minimum inhibitory concentration (MIC) USA 300 ([5]; Methicillin-resistant S. aureus Lac-Deleo USA 300): 32 µg/mL | Minimum inhibitory concentration (MIC) MU 3 ([5]; Methicillin-resistant S. aureus MU 3): 64 µg/mL | Minimum inhibitory concentration (MIC) ATCC 25923 ([5]; S. aureus ATCC 25923): 32 µg/mL | Minimum inhibitory concentration (MIC) ATCC 29213 ([5]; S. aureus ATCC 29213): 32 µg/mL | Minimum inhibitory concentration (MIC) CIP 103510 ([6]; E. faecium CIP 103510): 16 µg/mL | Minimum inhibitory concentration (MIC) Van A ([6]; clinical E. faecium Van A 0151850763): 16 µg/mL | Minimum inhibitory concentration (MIC) 1401 ([6]; clinical E. faecium strain 015 205731401): 8 µg/mL
